This is an account of results in ChEMBL document CHEMBL3769380, “New Synthetic Routes to Triazolo-benzodiazepine Analogues: Expanding the Scope of the Bump-and-Hole Approach for Selective Bromo and Extra-Terminal (BET) Bromodomain Inhibition” (J Med Chem, 2016).

Broadly, the Kd is the equilibrium constant for the complex coming apart.

For test [1], the target named is T1, Bromodomain-containing protein 2 (Homo sapiens, UniProt P25440). Put plainly: Binding affinity to recombinant poly-His-tagged BRD2 bromodomain 1 (unknown origin) by isothermal titration calorimetry. (In general: ITC needs no label: the signal is the heat of the interaction.)
T1 sequence (P25440 whole entry): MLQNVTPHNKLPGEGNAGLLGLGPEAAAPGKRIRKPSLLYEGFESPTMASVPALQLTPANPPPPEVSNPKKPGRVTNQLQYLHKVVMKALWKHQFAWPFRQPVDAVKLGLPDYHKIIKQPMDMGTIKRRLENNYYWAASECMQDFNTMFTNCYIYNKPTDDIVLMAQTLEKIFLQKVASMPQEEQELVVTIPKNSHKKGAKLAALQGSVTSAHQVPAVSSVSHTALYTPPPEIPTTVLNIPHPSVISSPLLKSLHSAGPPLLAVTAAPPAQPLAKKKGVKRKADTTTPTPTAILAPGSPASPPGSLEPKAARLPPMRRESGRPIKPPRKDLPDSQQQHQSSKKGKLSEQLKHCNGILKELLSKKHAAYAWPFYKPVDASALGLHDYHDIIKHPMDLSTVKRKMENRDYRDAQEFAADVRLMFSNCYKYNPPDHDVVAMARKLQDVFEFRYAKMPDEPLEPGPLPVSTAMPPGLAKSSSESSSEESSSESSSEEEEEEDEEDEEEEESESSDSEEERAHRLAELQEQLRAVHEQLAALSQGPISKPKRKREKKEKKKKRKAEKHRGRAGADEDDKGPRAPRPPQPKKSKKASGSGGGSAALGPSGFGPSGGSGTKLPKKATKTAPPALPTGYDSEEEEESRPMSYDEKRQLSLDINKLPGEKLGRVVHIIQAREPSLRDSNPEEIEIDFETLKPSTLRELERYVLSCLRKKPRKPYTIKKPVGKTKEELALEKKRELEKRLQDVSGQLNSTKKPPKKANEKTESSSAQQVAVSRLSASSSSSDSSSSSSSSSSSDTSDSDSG
Test [2] has as its target T1, Bromodomain-containing protein 2. Put plainly: Binding affinity to recombinant poly-His-tagged BRD2 bromodomain 2 (unknown origin) by isothermal titration calorimetry.
Test [3] concerns DH5-alpha. Description: Selectivity ratio of Kd for N-terminal His6-tagged BRD2 bromodomain 1 (unknown origin) expressed in competent Escherichia coli BL21(DE3) cells to Kd for BRD2 bromodomain 1 L110A mutant (unknown origin) expressed in competent Escherichia coli DH5-alpha cells. The following applies: Homo sapiens.
The subject of test [4] is DH5-alpha. Description: Selectivity ratio of Kd for N-terminal His6-tagged BRD2 bromodomain 2 (unknown origin) expressed in competent Escherichia coli BL21(DE3) cells to Kd for BRD2 bromodomain 2 L383A mutant (unknown origin) expressed in competent Escherichia coli DH5-alpha cells. The following applies: Homo sapiens.
In test [5] the test system is DH5-alpha. Description: Selectivity ratio for BRD2 bromodomain 1 L110A mutant (unknown origin) expressed in competent Escherichia coli DH5-alpha cells over N-terminal His6-tagged BRD2 bromodomain 1 (unknown origin) expressed in competent Escherichia coli BL21(DE3) cells by differential scanning fluorimetry. The note with it: Homo sapiens.
Test [6] deals with DH5-alpha. Description: Selectivity ratio for BRD2 bromodomain 2 L383A mutant (unknown origin) expressed in competent Escherichia coli DH5-alpha cells over N-terminal His6-tagged BRD2 bromodomain 2 (unknown origin) expressed in competent Escherichia coli BL21(DE3) cells by differential scanning fluorimetry. The note with it: Homo sapiens. (Differential scanning fluorimetry follows unfolding on heating by fluorescence.)

For `CC(=O)NCCCCn1c2c(c3ccccc31)C(=O)NCC2`, the Kd is 8.6 µM in test [1] and greater than 300 µM in test [2].

With `CC[C@@H](C(=O)OC)[C@@H]1N=C(c2ccc(Cl)cc2)c2cc(OC)ccc2-n2c(C)nnc21`, the Selectivity ratio with DH5-alpha [3], with DH5-alpha [4], in the test with DH5-alpha [5] and in the test on DH5-alpha [6] was less than 540 throughout.
